Read-outs that look alike come from different tables or passages of the source.

Data set [1] in a line: Ketoprofen concentration in the blood after application to rabbit abdomen. It counts as in vivo, white rabbits. As for the experimental part: (§1) Hair was removed from the abdomen of a white rabbits weighing 2.0 to 2.5 kg with an electric clipper and the abdomen was then shaved with an electric razor carefully so as not to hurt the skin. A glass cell kept at a constant temperature by circulation of warm water was fixed thereon with a quick adhesive (Alon Alpha® of Toa Gosei Co.) through a membrane sample.
(§2) A drug solution was placed in the glass cell and the concentration of the drug in the blood was determined at time intervals over 48 h. In this experiment, the blood sample was taken from the ear vein of the rabbit at given time intervals and the drug concentration was analyzed according to liquid chromatography.
(§3) The polymer membrane and the drug solution used in this experiment were prepared as follows: in the example of the present invention, a polypropylene membrane (Celgard® 2402 having a port diameter of 0.02 μm and porosity of 38%) was immersed in 15% or 20% solution of polyoxyethylene(3 mol) trimethylolpropane tristearate (TPS-303® of Nippon Emulsion Co.) in chloroform for one hour and then air-dried to obtain the membrane. The drug solution used in this example was 50% aqueous N-methyl-2-pyrrolidone solution further containing 0.01 g/ml of indomethacin.
A change of the concentration of ketoprofen in the blood was investigated with the same polymer membrane in the same manner as those of Example 6 except that 3 ml of 30% aqueous ethanol solution in which 0.01 g/ml of ketoprofen had been suspended was used.

Data set [2] can be described thus: Cumulative amount of nitroglycerin permeated through hairless rat skin, two-chamber diffusion cell. It is filed as in vitro ADME. Conditions: 38° C. The procedure: The same membrane sample as that of Example 2 and the same skin of hairless rat as that of Example 3 were mounted in the glass 2-chamber diffusion cell in the same manner as described above. 0.1% aqueous nitroglycerin solution was placed in the donor-side chamber and a phosphate buffer solution (pH 7.4) was placed in the receiver chamber. An increase of the concentration of nitroglycerin in the receiver chamber with time was determined by HPLC. As a control, only the skin free from the sample membrane was used in the experiment of the permeation of nitroglycerin through the skin. The experiment was conducted at 38° C.

The nature of data set [3]: Amount of acetaminophen permeated through hairless rat skin with membrane, two-chamber diffusion cell. It counts as in vitro ADME, WBN/Kob hairless rats. As for the experimental part: The skin of the abdomen of WBN/Kob hairless rats ("Saitama" experimental animal) was taken under anesthesia (60 mg/kg pentobarbital, I.P.). A membrane sample prepared in the same manner as that of Example 3 was applied to the corneous layer-side of the skin specimens and they were placed in a glass two-chamber diffusion cell. 10% aqueous ethanol solution containing 2.4% of acetaminophen dissolved therein was placed in a donor-side chamber thereof and a phosphate buffer solution (pH 7.4) was placed in a receiver-side chamber. Increase in acetaminophen concentration in the receiver-side chamber with time was determined by HPLC.

For data set [4] the following is noted: plaster of clonidine; American Heart Journal, 217-222, July (1984); cited from earlier work.
The next data set is described as follows: in vivo. Conditions: rabbit. The arrangement: species or system white rabbits. The procedure:
as §1, §2, §3
In a comparative example, about 1 wt.% of indomethacin was mixed in 100 parts by weight of an ointment base comprising 40% of ethyl alcohol, 58.4% of water, 1.5% of a polycarboxylic acid (Carbopol 940® of Goodrich Chemical Co.) and 0.1% of triethanolamine to prepare an ointment. 3 g of the ointment was placed in the constant temperature glass cell. No polymer membrane was used.

The mark [5] stands for this setting: rabbit, blood, topical or ocular, 32° C., read-out: Concentration of drug in blood.
Setting [6] is: rabbit, blood, topical or ocular, 38° C., read-out: Concentration of drug in blood.

Regarding `CC(C(=O)O)c1cccc(C(=O)c2ccccc2)c1` (stereo not shown) [ketoprofen], in data set [1] (32° C., 6 hr), the “Concentration of drug in blood” value is 0 ng/mL. In data set [1] (setting [5]), the concentration at 24 h stood at 18 ng/mL and the concentration at 48 h amounted to 17 ng/mL. Moreover, the concentration at 6 h in data set [1] (rabbit, blood, topical or ocular, 38° C., 6 hr, read-out: Concentration of drug in blood) amounted to 740 ng/mL. In data set [1] (setting [6]), the concentration at 24 h worked out at 410 ng/mL and the concentration at 48 h was 300 ng/mL.

With `O=[N+]([O-])OCC(CO[N+](=O)[O-])O[N+](=O)[O-]` [nitroglycerin], the “Cumulative amount of permeated nitroglycerin” value in data set [2] (With polymer membrane of the present invention, 2 h) was determined as 26 μg/cm^2; in data set [2] (With polymer membrane of the present invention, 4 hr), 92 μg/cm^2; in data set [2] (With polymer membrane of the present invention, 6 hr), 185 μg/cm^2; in data set [2] (With polymer membrane of the present invention, 8 hr) it was 274 μg/cm^2; in data set [2] (With polymer membrane of the present invention, 10 hr) it was 365 μg/cm^2; in data set [2] (Without polymer membrane (skin only), 2 h) it was 8 μg/cm^2. The “Cumulative amount of permeated nitroglycerin” value in data set [2] (Without polymer membrane (skin only), 4 hr) turned out to be 44 μg/cm^2; in data set [2] (Without polymer membrane (skin only), 6 hr) it was 101 μg/cm^2; in data set [2] (Without polymer membrane (skin only), 8 hr) it was 154 μg/cm^2; in data set [2] (Without polymer membrane (skin only), 10 hr), 218 μg/cm^2.

On to `CC(=O)Nc1ccc(O)cc1` [acetaminophen], for which the “Amount of drug permeated through the skin” value stood at 0 μg/cm^2 in data set [3] (32° C., 2 hr); 0 μg/cm^2 in data set [3] (32° C., 4 hr); 0 μg/cm^2 in data set [3] (32° C., 12 hr); 2 μg/cm^2 in data set [3] (32° C., 24 hr); 5 μg/cm^2 in data set [3] (32° C., 36 hr); 1 μg/cm^2 in data set [3] (38° C., 2 hr). The “Amount of drug permeated through the skin” value in data set [3] (38° C., 4 hr) was determined as 3 μg/cm^2; in data set [3] (38° C., 12 hr), 60 μg/cm^2; in data set [3] (38° C., 24 hr), 170 μg/cm^2; in data set [3] (38° C., 36 hr), 330 μg/cm^2.

Consider `Clc1cccc(Cl)c1N=C1NCCN1` [clonidine], for which the “Time to attain an effective concentration in the blood” value in data set [4] was “three”.

In the case of `COc1ccc2c(c1)c(CC(=O)O)c(C)n2C(=O)c1ccc(Cl)cc1` [indomethacin], the “Concentration of drug in blood” value in “in vivo” (360 min) came out at 0 ng/mL; in the data set “in vivo” (2880 min), 0 ng/mL; in the data set “in vivo” (topical or ocular, 6 h), 22 ng/mL. Besides, the concentration at 6 h in the data set “in vivo” (topical or ocular, Concentration of drug in blood) was determined as 20 ng/mL.

Values taken from US4968539A, “Liquid crystal membrane” (Lion Corporation, priority 1987, dated 1990).
